test system: Meloidogyne incognita; assay: Meloidogyne incognita test (sand, lettuce, gall formation); format: in vivo; details: Meloidogyne incognita, 336 h, 20 ppm, after 14 days; read-out: nematicidal efficacy (formation of galls)
Protocol: Meloidogyne incognita Test [table] To produce a suitable active compound preparation, 1 part by weight of active compound is mixed with the stated amount of solvent and the concentrate is diluted to the desired concentration with water. Vessels are filled with sand, active compound solution, an egg/larvae suspension of the southern root-knot nematode (Meloidogyne incognita) and lettuce seeds. The lettuce seeds germinate and the plants develop. The galls develop on the roots. After 14 days, the nematicidal efficacy in % is determined by the formation of galls. 100% means that no galls were found; 0% means that the number of galls on the treated plants corresponds to the untreated control.

SMILES	pest or weed control at 20 ppm [%]
Cn1nc(C(=O)NS(=O)(=O)c2c(F)cccc2F)cc1-c1c(F)cccc1F [I-146]	100
O=C(NS(=O)(=O)c1ccc(Cl)cc1Cl)c1cn(Cc2ccc(Cl)cc2)cn1 [I-148]	100
O=C(NS(=O)(=O)c1ccc(Cl)cc1)c1cn(Cc2ccccc2)cn1 [I-150]	100
O=C(NS(=O)(=O)c1ccccc1)c1cn(Cc2ccc(Cl)cc2)cn1 [I-151]	100
O=C(NS(=O)(=O)c1ccccc1)c1cn(Cc2ccccc2)cn1 [I-152]	100
O=C(NS(=O)(=O)c1cc(Cl)ccc1Cl)c1cn(Cc2ccccc2)cn1 [I-153]	100
O=C(NS(=O)(=O)c1cc(Cl)ccc1Cl)c1cn(Cc2ccc(Cl)cc2)cn1 [I-154]	90
O=C(NS(=O)(=O)c1ccccc1)c1cn(Cc2ccccc2Cl)cn1 [I-155]	100
O=C(NS(=O)(=O)c1c(Cl)cccc1Cl)c1cn(Cc2ccccc2Cl)cn1 [I-157]	90
O=C(NS(=O)(=O)c1ccccc1Cl)c1cn(Cc2cccc(Cl)c2)cn1 [I-159]	100
O=C(NS(=O)(=O)c1c(Cl)cccc1Cl)c1cn(Cc2cccc(C(F)(F)F)c2)cn1 [I-161]	100
O=C(NS(=O)(=O)c1ccccc1Cl)c1cn(Cc2cccc(C(F)(F)F)c2)cn1 [I-162]	100
Cc1nc(C(=O)NS(=O)(=O)c2ccccc2Cl)cn1Cc1ccccc1Cl [I-163]	90
O=C(NS(=O)(=O)c1cccc(Cl)c1)c1cn(Cc2ccc(Cl)cc2)cn1 [I-164]	90
O=C(NS(=O)(=O)c1ccccc1Cl)c1cn(Cc2cc(Cl)cc(Cl)c2)cn1 [I-165]	100
O=C(NS(=O)(=O)c1c(Cl)cccc1Cl)c1cn(Cc2cc(Cl)cc(Cl)c2)cn1 [I-166]	100
O=C(NS(=O)(=O)c1ccccc1)c1cn(Cc2cc(Cl)cc(Cl)c2)cn1 [I-167]	90
Cc1nc(C(=O)NS(=O)(=O)c2ccccc2Cl)cn1Cc1cccc(Cl)c1 [I-168]	100
Cc1nc(C(=O)NS(=O)(=O)c2c(Cl)cccc2Cl)cn1Cc1cccc(Cl)c1 [I-169]	90
O=C(NS(=O)(=O)c1ccccc1Cl)c1cn(-c2cccc(Cl)c2)cn1 [I-174]	100

SMILES	pest or weed control at 20 ppm [%]
O=C(NS(=O)(=O)c1c(Cl)cccc1Cl)c1cn(-c2cccc(Cl)c2)cn1 [I-175]	100
O=C(NS(=O)(=O)c1ccccc1Cl)c1cn(-c2cccc(C(F)(F)F)c2)cn1 [I-176]	100
O=C(NS(=O)(=O)c1c(Cl)cccc1Cl)c1cn(-c2cccc(C(F)(F)F)c2)cn1 [I-177]	100
COc1ccc(Cl)c(S(=O)(=O)NC(=O)c2cn(-c3cccc(C(F)(F)F)c3)cn2)c1 [I-178]	100
COc1ccc(Cl)c(S(=O)(=O)NC(=O)c2cn(-c3cccc(Cl)c3)cn2)c1 [I-179]	90
O=C(NS(=O)(=O)c1ccccc1)c1cn(-c2cc(Cl)cc(Cl)c2)cn1 [I-180]	100
O=C(NS(=O)(=O)c1ccccc1Cl)c1cn(-c2cc(Cl)cc(Cl)c2)cn1 [I-181]	100
O=C(NS(=O)(=O)c1ccc(Cl)cc1)c1cn(-c2cc(Cl)cc(Cl)c2)cn1 [I-182]	90
O=C(NS(=O)(=O)c1ccccc1Cl)c1cn(-c2ccccc2Cl)cn1 [I-183]	90
O=C(NS(=O)(=O)c1c(Cl)cccc1Cl)c1cn(-c2ccccc2Cl)cn1 [I-184]	100
O=C(NS(=O)(=O)c1ccccc1Cl)c1cn(-c2ccc(Cl)cc2)cn1 [I-185]	100
O=C(NS(=O)(=O)c1c(Cl)cccc1Cl)c1cn(-c2ccc(Cl)cc2)cn1 [I-186]	90
O=C(NS(=O)(=O)c1c(Cl)cccc1Cl)c1cn(-c2cc(Cl)cc(Cl)c2)cn1 [I-187]	100
COc1ccc(Cl)c(S(=O)(=O)NC(=O)c2cn(-c3cc(Cl)cc(Cl)c3)cn2)c1 [I-188]	100
O=C(NS(=O)(=O)c1ccc(Cl)cc1Cl)c1cn(-c2cc(Cl)cc(Cl)c2)cn1 [I-189]	90
COc1ccc(Cl)c(S(=O)(=O)NC(=O)c2cn(-c3ccc(Cl)cc3)cn2)c1 [I-190]	100
O=C(NS(=O)(=O)c1ccccc1Cl)c1cn(-c2ccccc2)cn1 [I-191]	100
O=C(NS(=O)(=O)c1c(Cl)cccc1Cl)c1cn(-c2ccccc2)cn1 [I-192]	100
O=C(NS(=O)(=O)c1ccccc1)c1cn(-c2ccc(Cl)c(Cl)c2)cn1 [I-193]	100

From patent US10820591B2, “Substituted sulfonyl amides for controlling animal pests” (Bayer Aktiengesellschaft, priority 2016, dated 2020)
